Values quoted from earlier work, collected in patent US20050107420A1 (Boehringe Ingelheim Pharma GmbH & Co. KG, priority 2002, published 2005).
pIC50: −log10 of the molar value. Each block holds one molecule with its values, some of them ahead of it.

Tests used:
[1] = test system: catalytic site (Sc) of PDE4
[2] = rat
[3] = in vivo
[4] = test system: PDE4 derived from tumor cells; details: read-out: IC50 against a PDE4 derived from tumor cells
tumor cells = details: micromolar concentrations
PDE4D isoform = PDE4D isoform (Homo sapiens, UniProt Q08499)
[5] = antigen-challenged pig
[6] = test system: TNF release and lymphocyte proliferation; details: oral dose of 300 mg
PDE4B mutant enzyme = details: alanine for aspartate substitution
[7] = guinea-pig
[8] = in vivo; remark: listed apart in the source
[9] = oral administration, clinical conditions
[10] = not given; remark: listed apart in the source
[11] = human, in vivo

PDE4D isoform, sequence (Q08499 whole entry, canonical isoform): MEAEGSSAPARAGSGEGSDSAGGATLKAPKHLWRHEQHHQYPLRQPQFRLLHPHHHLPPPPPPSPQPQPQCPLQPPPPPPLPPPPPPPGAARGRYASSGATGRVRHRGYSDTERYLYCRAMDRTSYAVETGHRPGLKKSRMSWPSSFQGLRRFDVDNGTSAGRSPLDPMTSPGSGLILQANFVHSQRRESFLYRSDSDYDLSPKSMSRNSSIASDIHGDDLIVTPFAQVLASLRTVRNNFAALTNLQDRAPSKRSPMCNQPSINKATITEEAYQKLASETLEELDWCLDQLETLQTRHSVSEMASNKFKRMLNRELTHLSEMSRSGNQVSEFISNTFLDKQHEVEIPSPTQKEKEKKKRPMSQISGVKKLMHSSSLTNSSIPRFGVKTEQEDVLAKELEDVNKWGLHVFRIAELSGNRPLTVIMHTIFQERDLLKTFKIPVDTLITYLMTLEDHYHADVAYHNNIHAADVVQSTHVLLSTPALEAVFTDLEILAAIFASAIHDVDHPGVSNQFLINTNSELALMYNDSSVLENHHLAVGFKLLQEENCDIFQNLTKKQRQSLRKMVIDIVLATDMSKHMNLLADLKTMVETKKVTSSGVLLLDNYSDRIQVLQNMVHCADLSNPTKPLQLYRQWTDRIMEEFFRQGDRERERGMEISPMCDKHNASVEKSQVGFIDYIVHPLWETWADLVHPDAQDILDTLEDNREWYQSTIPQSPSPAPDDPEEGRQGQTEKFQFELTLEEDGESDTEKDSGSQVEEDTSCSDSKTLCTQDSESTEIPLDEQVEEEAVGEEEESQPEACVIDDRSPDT

SMILES: COc1ccc([C@H](Cc2ccncc2)c2ccccc2)cc1OC1CCCC1 [CDP840]
late reactions to inhaled allergen (9.5 days oral administration, 15 and 30 mg, patients with bronchial asthma): suppression of late reactions to inhaled allergen | late-phase response in the treatment of asthma (human, in vivo): significant inhibition | potency at the Sc [1]: significantly higher potency at the Sc than does SB-207,499

SMILES: COc1cc2c3c(c1)C(c1ccccc1)=N[C@@H](NC(=O)c1cc4ccccc4cn1)C(=O)N3CC2 [CI-1018]
oral potency, ED50 [2]: 5 mg/kg

SMILES: COc1ccc(C2CNC(=O)NC2)cc1OC1CC2CCC1C2 (centres unmarked) [CP-80,633]
emesis, nausea and vomiting [3]: elicit emesis

SMILES: COc1ccc([C@@H](Cc2ccncc2)c2ccccc2)cc1OC1CCCC1 [CT-1731]
elevation of cAMP, activity relative to enantiomer CDP840 (cAMP): less active

pIC50 [4]: 7.80
SMILES: Clc1nc2c(N3CCCC3)nc(C3CCNCC3)nc2nc1NCc1ccccc1 [Formula (0.1.55)]
inhibition of the growth of tumor cells (tumor cells): inhibit the growth of tumor cells at micromolar concentrations

selectivity for inhibition of the PDE4D isoform (PDE4D isoform): 100 fold
SMILES: O=C(NCc1ccccc1Cl)c1cccnc1Oc1ccc(F)cc1 [Formula (0.1.58)]

potency or selectivity for PDE4D relative to other subtypes, in words (PDE4D isoform): PDE4D selective inhibitor
SMILES: N#Cc1cccc(-c2nc(-c3ccc(C(=O)O)cc3)cc3cccnc23)c1 [Formula (0.1.59)]

SMILES: CCCn1c(=O)c2c(C)nc(CC)n2c2nc(OC)ccc21 [Formula D-22888]
anti-allergic effect [5]: strong anti-allergic affect | rhinorrhea [5]: inhibit rhinorrhea

SMILES: CCNc1ncn(Cc2ccc(OC)c(OC3CCCC3)c2)c2nc(C(C)C)nc1-2 [Formula V-11294A]
TNF levels and lymphocyte proliferation ex vivo [6]: effective in reducing TNF levels and lymphocyte proliferation

SMILES: COc1ccc(C(=O)Nc2c(Cl)cncc2Cl)cc1OC1CCCC1 [RP-73,401]
potency on the mutant PDE4B enzyme (PDE4B mutant enzyme): lose potency | inhibition of antigen-induced airway eosinophilia and PAF- and ozone-induced airway hyper-responsiveness (AHR) [7]: active | inhibition of antigen-induced bronchoalveolar lavage (BAL) eosinophilia [7]: active | inhibition of antigen-induced lung eosinophilia and eosinophil peroxidase (EPO) [7]: active

potency or selectivity for PDE4D relative to other subtypes, in words (PDE4D isoform): more potent against PDE4D
SMILES: O=c1c2cccnc2n(-c2cccc([N+](=O)[O-])c2)c(=O)n1Cc1ccncc1 [RS-25,344]

potency on the mutant PDE4B enzyme (PDE4B mutant enzyme): lose potency
SMILES: COc1ccc(CC2CNC(=O)N2)cc1OC1CCCC1 (centres unmarked) [Ro-20-1724]

SMILES: COc1cc2c(cc1OC)[C@@H]1CN(C)CC[C@@H]1N=C2c1ccc(NC(C)=O)cc1 [benafentrine]
bronchodilation [8]: bronchodilation only when administered by inhalation

SMILES: CSc1ccc(C(=O)c2[nH]c(=O)[nH]c2C)cc1 [enoximone]
mean pulmonary artery pressure [9]: decreases in mean pulmonary artery pressure

SMILES: CC[N+]1(C)[C@@H]2CC(OC(=O)[C@H](CO)c3ccccc3)C[C@H]1[C@@H]1O[C@@H]12 (some centres unmarked) [oxitropium]
change in heart rate, blood pressure, bladder function, intraocular pressure, or pupillary diameter ([10]; inhaled at several times the recommended dose): little or no change

potency on the mutant PDE4B enzyme (PDE4B mutant enzyme): lose potency
SMILES: COc1ccc(C2CNC(=O)C2)cc1OC1CCCC1 (centres unmarked) [rolipram]
stimulation of acid secretion from gastric parietal cells (gastric parietal cells): very potent stimulator

SMILES: Cn1c(=O)c2[nH]cnc2n(C)c1=O [theophylline]
neutrophil counts in the sputum of COPD patients [11]: reduces neutrophil counts

SMILES: CCOc1cc2cc(C(=O)O)sc2cc1OCC [tibenelast]
bronchodilation [8]: Unsatisfactory results

SMILES: C[N+]1(C)C2CC(OC(=O)C(O)(c3cccs3)c3cccs3)CC1C1OC12 (stereo not drawn) [tiotropium, (1α, 2β, 4β, 5α, 7β)-7-[(hydroxydi-2-thienylacetyl)oxy]-9,9-dimethyl-3-oxa-9-azoniatricyclo[3.3.1.0^2,4]nonane bromide]
duration of action ([10]; in vivo): prolonged duration of action

SMILES: CCCOc1ccccc1-c1nc2[nH]nnc2c(=O)[nH]1 [zaprinast]
bronchodilation [8]: Unsatisfactory results

SMILES: COc1cc(-c2ccc(=O)[nH]n2)ccc1OC(F)F [zardaverine]
bronchodilation [8]: only a modest and short-lived bronchodilation
